In article PMC6627993 (International Journal of Molecular Sciences, 2019):
Like-named read-outs stand apart in the source and are kept apart here.

How the values were obtained:
[1] = system: A2780; experiment: MTT cell viability assay
Procedure: (§4) The rate of cell-survival under the action of test substances was evaluated by an improved MTT assay as previously described [20, 31]. […] Incubation was ended after 72 h and cell survival was determined by addition of MTT (Serva, Heidelberg, Germany) solution (5 mg/mL in phosphate buffered saline). The formazan precipitate was dissolved in DMSO (VWR, Langenfeld, Germany). Absorbance was measured at 544 nm and 690 nm in a FLUOstar microplate-reader (BMG LabTech, Offenburg, Germany).

[2] = system: Kuramochi; experiment: MTT cell viability assay
Procedure: as §4

[3] = system: A2780; settings: cited from earlier work
[4] = system: OVSAHO; experiment: MTT cell viability assay
Procedure: as §4

[5] = system: CaOV3; experiment: MTT cell viability assay
Procedure: as §4

[6] = system: HEY; experiment: MTT cell viability assay
Procedure: as §4

[7] = system: A2780; experiment: Synergism study (Chou-Talalay, MTT), 48 h HDACi + 72 h HDACi and cisplatin; type: cell-based, human
Procedure: (§1) Concentrations were chosen to achieve a fraction affected (fa; level of cell viability inhibition) between 0.2 and 0.9 in the Chou-Talalay-analysis.
(§2) After 72 h, the cytotoxic effect was determined with a MTT cell viability assay. Calcusyn software 2.1 (Biosoft, Cambridge, UK) was used to calculate the combination index (CI) as a quantitative measure of the degree of drug interaction.

[8] = system: OVSAHO; experiment: as above; type: cell-based, human
Procedure: as §1, §2

[9] = system: HEY; experiment: as above; type: cell-based, human
Procedure: as §1, §2

[10] = system: HEY; experiment: Measurement of apoptotic nuclei (subG1, flow cytometry); type: cell-based, human; settings: HDACi 48 h, then cisplatin IC50 24 h
Procedure: Next, we investigated if the observed synergistic cytotoxic effect was mediated via apoptosis-induction. […] Then, cells were subjected to flow-cytometry-based subG1 analysis.
A2780, CaOV3, HEY, Kuramochi, and OVSAHO cells were seeded at a density of 40,000 c/w, 50,000 c/w, 40,000 c/w, 60,000 c/w, and 100,000 c/w in 24-well plates (Sarstedt, Nürnbrecht, Germany). Cells were treated with entinostat, panobinostat, or nexturastat A and cisplatin alone or in combination for the indicated time points. Supernatant was removed after a centrifugation step and the cells were lysed in 500 µL hypotonic lysis buffer (0.1% sodium citrate, 0.1% Triton X-100, 100 µg/mL PI) at 4 °C in the dark overnight. The percentage of apoptotic nuclei with DNA content in sub-G1 was analyzed by flow cytometry using the CyFlow instrument (Partec, Norderstedt, Germany).

[11] = system: A2780, CaOV3, HEY, Kuramochi, OVSAHO; experiment: Synergism study (Chou-Talalay, MTT), all cell lines; type: cell-based, human; settings: 48 h + 72 h; CI < 0.9 indicates synergism
Procedure: as §1, §2

[12] = system: HDAC in HEY cells; experiment: Whole-cell HDAC inhibition assay; type: cell-based, human; settings: 18 h incubation
Procedure: (§3) The cellular HDAC assay was based on an assay published by Heltweg and Jung, Ciossek et al., and Bonfils et al. with minor modifications as described in [20]. Briefly, human cancer cell lines A2780, CaOV3, HEY, Kuramochi, and OVSAHO were seeded in 96-well tissue culture plates (Corning, Kaiserslautern, Germany) at a density of 15,000 c/w, 15,000 c/w, 17,500 c/w, 22,500 c/w, and 50,000 c/w in a total volume of 90 µL of culture medium. After 24 h, cells were incubated for 18 h with increasing concentrations of test compounds. The reaction was started by adding 10 µL of 3 mM Boc-Lys(Ac)-AMC (Bachem, Bubendorf, Switzerland) to reach final concentration of 0.3 mM [61]. The cells were incubated with the Boc-Lys(Ac)-AMC for 3 h under cell culture conditions. […] Fluorescence intensity was measured at excitation of 320 nm and emission of […] in a NOVOstar microplate reader (BMG LabTech, Offenburg, Germany).

[13] = system: HDAC in OVSAHO cells; experiment: Whole-cell HDAC inhibition assay; type: cell-based, human; settings: 18 h incubation
Procedure: as §3

[14] = system: HDAC in CaOV3 cells; experiment: Whole-cell HDAC inhibition assay; type: cell-based, human; settings: 18 h incubation
Procedure: as §3

[15] = system: HDAC in A2780 cells; experiment: Whole-cell HDAC inhibition assay; type: cell-based, human; settings: 18 h incubation
Procedure: as §3

[16] = system: HDAC in Kuramochi cells; experiment: Whole-cell HDAC inhibition assay; type: cell-based, human; settings: 18 h incubation
Procedure: as §3

[17] = read-out: IC50 of cisplatin, cisplatin alone, 72 h
[18] = cisplatin 1.00 µM + panobinostat 40 nM
[19] = cisplatin 2.00 µM + panobinostat 40 nM
[20] = cisplatin 4.00 µM + panobinostat 40 nM
[21] = read-out: IC50 (HDAC inhibitory activity)

N.N.[Cl][Pt][Cl] [Cisplatin, cis-diamminedichloridoplatinum(II)]
IC50 ([1]; 72 h incubation): 11 µM
pIC50 ± SEM ([1]; 72 h incubation): 4.96 ± 0.01
IC50 [1, 17]: 11 µM
IC50 ([2]; 72 h incubation): 4.68 µM
pIC50 ± SEM ([2]; 72 h incubation): 5.33 ± 0.02
IC50 [2, 17]: 4.68 µM
IC50-values for cisplatin in previous studies [3]: one-digit micromolar range
IC50 ([4]; 72 h incubation): 4.83 µM
pIC50 ± SEM ([4]; 72 h incubation): 5.32 ± 0.01
IC50 [4, 17]: 4.83 µM
IC50 ([5]; 72 h incubation): 1440 nM
pIC50 ± SEM ([5]; 72 h incubation): 5.84 ± 0.01
IC50 [5, 17]: 1440 nM
IC50 ([6]; 72 h incubation): 5.25 µM
pIC50 ± SEM ([6]; 72 h incubation): 5.28 ± 0.01
IC50 [6, 17]: 5.25 µM

Cc1[nH]c2ccccc2c1CCNCc1ccc(/C=C/C(=O)NO)cc1 [Panobinostat, panobinostat]
combination index (CI) ([7]; cisplatin 0.50 µM + panobinostat 10 nM): 0.21
combination index (CI) ([7]; cisplatin 0.50 µM + panobinostat 20 nM): 0.10
combination index (CI) ([7]; cisplatin 0.50 µM + panobinostat 30 nM): 0.15
combination index (CI) ([7]; cisplatin 0.50 µM + panobinostat 40 nM): 0.15
combination index (CI) ([7]; cisplatin 1.00 µM + panobinostat 10 nM): 0.25
combination index (CI) ([7]; cisplatin 1.00 µM + panobinostat 20 nM): 0.12
combination index (CI) ([7]; cisplatin 1.00 µM + panobinostat 30 nM): 0.17
combination index (CI) [7, 18]: 0.18
combination index (CI) ([7]; cisplatin 2.00 µM + panobinostat 10 nM): 0.35
combination index (CI) ([7]; cisplatin 2.00 µM + panobinostat 20 nM): 0.16
combination index (CI) ([7]; cisplatin 2.00 µM + panobinostat 30 nM): 0.22
combination index (CI) [7, 19]: 0.21
combination index (CI) ([7]; cisplatin 4.00 µM + panobinostat 10 nM): 0.35
combination index (CI) ([7]; cisplatin 4.00 µM + panobinostat 20 nM): 0.21
combination index (CI) ([7]; cisplatin 4.00 µM + panobinostat 30 nM): 0.27
combination index (CI) [7, 20]: 0.25
combination index (CI) ([7]; cisplatin 6.00 µM + panobinostat 10 nM): 0.29
combination index (CI) ([7]; cisplatin 6.00 µM + panobinostat 20 nM): 0.23
combination index (CI) ([7]; cisplatin 6.00 µM + panobinostat 30 nM): 0.26
combination index (CI) ([7]; cisplatin 6.00 µM + panobinostat 40 nM): 0.26
combination index (CI) [8, 18]: 0.36
combination index (CI) ([8]; cisplatin 1.00 µM + panobinostat 50 nM): 0.33
combination index (CI) ([8]; cisplatin 1.00 µM + panobinostat 60 nM): 0.27
combination index (CI) ([8]; cisplatin 1.00 µM + panobinostat 70 nM): 0.26
combination index (CI) [8, 19]: 0.25
combination index (CI) ([8]; cisplatin 2.00 µM + panobinostat 50 nM): 0.23
combination index (CI) ([8]; cisplatin 2.00 µM + panobinostat 60 nM): 0.21
combination index (CI) ([8]; cisplatin 2.00 µM + panobinostat 70 nM): 0.21
combination index (CI) ([8]; cisplatin 3.00 µM + panobinostat 40 nM): 0.24
combination index (CI) ([8]; cisplatin 3.00 µM + panobinostat 50 nM): 0.22
combination index (CI) ([8]; cisplatin 3.00 µM + panobinostat 60 nM): 0.21
combination index (CI) ([8]; cisplatin 3.00 µM + panobinostat 70 nM): 0.21
combination index (CI) [8, 20]: 0.23
combination index (CI) ([8]; cisplatin 4.00 µM + panobinostat 50 nM): 0.22
combination index (CI) ([8]; cisplatin 4.00 µM + panobinostat 60 nM): 0.21
combination index (CI) ([8]; cisplatin 4.00 µM + panobinostat 70 nM): 0.21
combination index (CI) ([8]; cisplatin 5.00 µM + panobinostat 40 nM): 0.24
combination index (CI) ([8]; cisplatin 5.00 µM + panobinostat 50 nM): 0.23
combination index (CI) ([8]; cisplatin 5.00 µM + panobinostat 60 nM): 0.22
combination index (CI) ([8]; cisplatin 5.00 µM + panobinostat 70 nM): 0.22
combination index (CI) ([9]; cisplatin 0.32 µM + panobinostat 5.0 nM): * (* means fraction affected is less than 0.20)
combination index (CI) ([9]; cisplatin 0.32 µM + panobinostat 10.0 nM): * (* means fraction affected is less than 0.20)
combination index (CI) ([9]; cisplatin 0.32 µM + panobinostat 20.0 nM): 0.14
combination index (CI) ([9]; cisplatin 0.32 µM + panobinostat […]): 0.19
combination index (CI) ([9]; cisplatin 0.50 µM + panobinostat 5.0 nM): * (* means fraction affected is less than 0.20)
combination index (CI) ([9]; cisplatin 0.50 µM + panobinostat 10.0 nM): * (* means fraction affected is less than 0.20)
combination index (CI) ([9]; cisplatin 0.50 µM + panobinostat 20.0 nM): 0.15
combination index (CI) ([9]; cisplatin 0.50 µM + panobinostat […]): 0.21
combination index (CI) ([9]; cisplatin 1.00 µM + panobinostat 5.0 nM): * (* means fraction affected is less than 0.20)
combination index (CI) ([9]; cisplatin 1.00 µM + panobinostat 10.0 nM): * (* means fraction affected is less than 0.20)
combination index (CI) ([9]; cisplatin 1.00 µM + panobinostat 20.0 nM): 0.16
combination index (CI) ([9]; cisplatin 1.00 µM + panobinostat […]): 0.25
combination index (CI) ([9]; cisplatin 2.00 µM + panobinostat 5.0 nM): * (* means fraction affected is less than 0.20)
combination index (CI) ([9]; cisplatin 2.00 µM + panobinostat 10.0 nM): 0.41
combination index (CI) ([9]; cisplatin 2.00 µM + panobinostat 20.0 nM): 0.17
combination index (CI) ([9]; cisplatin 2.00 µM + panobinostat […]): 0.25
combination index (CI) ([9]; cisplatin 4.00 µM + panobinostat 5.0 nM): 0.51
combination index (CI) ([9]; cisplatin 4.00 µM + panobinostat 10.0 nM): 0.33
combination index (CI) ([9]; cisplatin 4.00 µM + panobinostat 20.0 nM): 0.20
combination index (CI) ([9]; cisplatin 4.00 µM + panobinostat […]): 0.28
apoptosis induction, combination with cisplatin versus cisplatin or HDACi alone [10]: no difference in apoptosis induction
CI-values (interaction with cisplatin) [11]: lower than 0.9
pIC50 ± SEM (HDAC inhibitory activity) [12]: 7.87 ± 0.03
IC50 [12, 21]: 13.6 nM
pIC50 ± SEM (HDAC inhibitory activity) [13]: 7.64 ± 0.04
IC50 [13, 21]: 23.1 nM
pIC50 ± SEM (HDAC inhibitory activity) [14]: 8.10 ± 0.05
IC50 [14, 21]: 7.88 nM
pIC50 ± SEM (HDAC inhibitory activity) [15]: 7.91 ± 0.06
IC50 [15, 21]: 12.1 nM
pIC50 ± SEM (HDAC inhibitory activity) [16]: 8.01 ± 0.07
IC50 [16, 21]: 9.87 nM
